Reference: ChEMBL document CHEMBL1201862, “PubChem BioAssay data set” (2004)

Legend:
[1] = target: Transitional endoplasmic reticulum ATPase (Homo sapiens, UniProt P55072); test: Luminescence dose response biochemical high throughput screening assay for inhibitors of the p97 ATPase: synthesized compounds. [Related pubchem assays: 1481, 1517 ]
[2] = target: Transitional endoplasmic reticulum ATPase (Homo sapiens, UniProt P55072, C522A); test: Luminescence counterscreen assay for p97 inhibitors: dose response biochemical high throughput screening assay to identify inhibitors of the C522A mutant p97 ATPase: synthesized compounds. [Related pubchem assays: 1481, 1517, 1551 ]
[3] = target: T1, RNA-binding protein pos-1 (Caenorhabditis elegans, UniProt G5EF15); test: disruptors of C. elegans POS-1 RNA interaction – biochemical, fluorescence polarization, dose response (AID 1964);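 also: purified POS-1 fused to maltose binding protein made in E. coli; potency of compounds blocking POS-1 binding to fluorescent RNA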
T1 sequence (G5EF15 whole entry): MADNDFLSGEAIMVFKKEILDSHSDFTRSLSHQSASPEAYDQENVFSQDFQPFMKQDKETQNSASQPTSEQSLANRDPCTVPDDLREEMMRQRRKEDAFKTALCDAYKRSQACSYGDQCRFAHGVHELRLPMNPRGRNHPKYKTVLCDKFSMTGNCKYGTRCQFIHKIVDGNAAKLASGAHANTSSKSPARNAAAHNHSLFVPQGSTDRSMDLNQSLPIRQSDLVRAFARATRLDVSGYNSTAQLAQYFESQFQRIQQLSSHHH

14-3-3 protein gamma = 14-3-3 protein gamma (Homo sapiens, UniProt P61981); test: modulators of 14-3-3 gamma client binding – dose response (AID 711); format: functional
Bcl-2-related protein A1 [4] = target: T2, Bcl-2-related protein A1 (Mus musculus, UniProt Q07440); test: small-molecule antagonists of Bfl-1/BH3 interaction – biochemical, TR-FRET, mouse Bfl-1, confirmation (AID 621);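 also: TR-FRET binding of GST-Bfl-1 to FITC-labelled Bid peptide via terbium antibody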
T2 sequence (Q07440 whole entry): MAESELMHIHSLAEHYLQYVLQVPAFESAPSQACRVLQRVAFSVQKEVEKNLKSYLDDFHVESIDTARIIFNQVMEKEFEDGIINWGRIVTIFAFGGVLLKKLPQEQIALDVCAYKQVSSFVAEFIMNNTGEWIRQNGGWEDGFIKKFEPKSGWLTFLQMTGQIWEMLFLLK

Bcl-2-related protein A1 [5] = target: T2, Bcl-2-related protein A1; test: displacement of Bid BH3 peptide from Bfl-1 – biochemical, fluorescence polarization, FITC-Bid, mouse, primary screen (AID 432)
[6] = target: T3, Zinc finger protein mex-5 (Caenorhabditis elegans, UniProt Q9XUB2); test: potency of MEX-5 RNA-binding blockers – biochemical, C. elegans, fluorescence polarization, dose response (AID 1960)
T3 sequence (Q9XUB2 whole entry): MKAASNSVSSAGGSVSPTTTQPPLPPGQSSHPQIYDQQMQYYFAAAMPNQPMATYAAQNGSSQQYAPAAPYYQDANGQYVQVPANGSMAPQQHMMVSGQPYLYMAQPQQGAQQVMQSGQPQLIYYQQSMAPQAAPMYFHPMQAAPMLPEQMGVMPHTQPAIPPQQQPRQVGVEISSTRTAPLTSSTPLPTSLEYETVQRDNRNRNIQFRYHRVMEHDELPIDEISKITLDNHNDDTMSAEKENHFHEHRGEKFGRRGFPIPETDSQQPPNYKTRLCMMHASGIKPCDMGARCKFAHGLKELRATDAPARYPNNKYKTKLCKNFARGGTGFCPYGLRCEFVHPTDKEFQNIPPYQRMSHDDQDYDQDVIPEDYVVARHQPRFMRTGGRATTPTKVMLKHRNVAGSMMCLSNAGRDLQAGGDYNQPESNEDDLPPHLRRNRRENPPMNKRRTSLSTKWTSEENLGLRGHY

Sequence of Transitional endoplasmic reticulum ATPase (Homo sapiens, UniProt P55072) (P55072 whole entry): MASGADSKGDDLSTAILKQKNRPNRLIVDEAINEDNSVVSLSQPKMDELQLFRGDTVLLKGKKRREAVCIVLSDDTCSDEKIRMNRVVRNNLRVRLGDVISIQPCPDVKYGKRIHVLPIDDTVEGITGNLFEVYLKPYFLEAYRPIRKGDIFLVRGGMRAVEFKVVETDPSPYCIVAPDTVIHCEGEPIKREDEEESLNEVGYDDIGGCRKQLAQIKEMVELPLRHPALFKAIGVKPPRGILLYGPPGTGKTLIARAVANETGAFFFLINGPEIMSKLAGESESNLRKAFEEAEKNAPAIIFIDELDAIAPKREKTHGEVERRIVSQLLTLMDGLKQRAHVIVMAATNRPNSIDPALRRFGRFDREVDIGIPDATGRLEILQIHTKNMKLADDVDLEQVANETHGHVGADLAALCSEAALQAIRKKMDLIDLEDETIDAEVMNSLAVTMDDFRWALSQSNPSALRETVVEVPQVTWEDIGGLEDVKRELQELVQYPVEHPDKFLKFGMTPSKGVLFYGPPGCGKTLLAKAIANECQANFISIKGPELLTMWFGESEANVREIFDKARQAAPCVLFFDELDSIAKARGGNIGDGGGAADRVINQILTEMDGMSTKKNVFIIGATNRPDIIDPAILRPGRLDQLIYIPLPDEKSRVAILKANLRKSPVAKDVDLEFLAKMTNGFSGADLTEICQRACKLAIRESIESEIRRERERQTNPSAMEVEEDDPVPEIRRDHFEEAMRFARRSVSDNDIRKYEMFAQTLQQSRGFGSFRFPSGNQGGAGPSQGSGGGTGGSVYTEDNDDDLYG
Sequence of Transitional endoplasmic reticulum ATPase (Homo sapiens, UniProt P55072, C522A) (P55072 2-806 C522A limits assumed): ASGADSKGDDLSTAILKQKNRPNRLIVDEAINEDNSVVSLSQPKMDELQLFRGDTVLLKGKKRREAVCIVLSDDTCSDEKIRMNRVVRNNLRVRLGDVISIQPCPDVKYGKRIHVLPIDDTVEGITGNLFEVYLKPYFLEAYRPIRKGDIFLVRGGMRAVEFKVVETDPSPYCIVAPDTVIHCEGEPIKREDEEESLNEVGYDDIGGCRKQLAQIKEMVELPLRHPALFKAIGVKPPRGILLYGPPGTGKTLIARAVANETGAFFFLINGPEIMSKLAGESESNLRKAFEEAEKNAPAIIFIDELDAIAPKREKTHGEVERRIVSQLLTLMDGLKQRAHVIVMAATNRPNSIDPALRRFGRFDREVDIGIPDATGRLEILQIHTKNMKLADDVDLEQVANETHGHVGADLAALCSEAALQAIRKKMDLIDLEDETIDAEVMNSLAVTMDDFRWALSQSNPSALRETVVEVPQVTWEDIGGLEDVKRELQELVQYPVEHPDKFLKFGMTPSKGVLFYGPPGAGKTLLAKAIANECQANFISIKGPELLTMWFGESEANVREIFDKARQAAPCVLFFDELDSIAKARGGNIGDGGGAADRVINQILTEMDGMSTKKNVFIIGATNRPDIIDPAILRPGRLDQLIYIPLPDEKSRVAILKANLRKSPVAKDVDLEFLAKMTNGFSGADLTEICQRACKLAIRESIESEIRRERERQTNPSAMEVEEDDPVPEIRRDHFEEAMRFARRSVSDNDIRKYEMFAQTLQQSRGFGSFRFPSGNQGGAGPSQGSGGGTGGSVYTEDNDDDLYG
Sequence of 14-3-3 protein gamma (P61981 whole entry): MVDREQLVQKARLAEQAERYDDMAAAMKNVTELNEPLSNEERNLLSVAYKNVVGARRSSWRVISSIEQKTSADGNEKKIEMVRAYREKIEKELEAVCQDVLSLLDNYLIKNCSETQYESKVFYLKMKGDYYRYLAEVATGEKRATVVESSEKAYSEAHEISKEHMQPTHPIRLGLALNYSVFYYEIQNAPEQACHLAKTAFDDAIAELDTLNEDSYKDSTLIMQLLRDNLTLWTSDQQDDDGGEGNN

CCOC(=O)/C(C#N)=C/c1c2ccccc2cc2ccccc12
IC50 [1]: > 50 µM (not active) | IC50 [2]: > 50 µM (not active)

Cc1ccc(C2C3CN(C(C)C)CC=C3C(C#N)=C(N)C2(C#N)C#N)cc1 (configuration not stated)
EC50 [3]: 7.15 µM (inconclusive) | IC50 (14-3-3 protein gamma): > 50 µM (not active) | IC50 (Bcl-2-related protein A1 [4]): > 100 µM (not active) | IC50 (Bcl-2-related protein A1 [5]): > 100 µM (not active) | EC50 [6]: 8.29 µM (inconclusive)
